Experimental data: patent US20250066290A1, “DHODH INHIBITORS CONTAINING A CARBOXYLIC ACID BIOISOSTERE” (IMMUNIC AG, priority 2021, published 2025)
Where two headings read alike, the source gives them in different places.

Legend:
[1] = target: N-terminally truncated recombinant hDHODH enzyme (Homo sapiens, UniProt Q02127); assay: biochemical; assay type: biochemical
Protocol: Briefly, the hDHODH concentration was adjusted in a way that an average slope of approximately 0.2 AU/min served as the positive control (e.g. without inhibitor). The standard assay mixture contained 60 μM 2,6-dichloroindophenol, 50 μM decylubiquinone and 100 μM dihydroorotate. The hDHODH enzyme with or without at least six different concentrations of the compounds was added and measurements were performed in 50 mM TrisHCl, 150 mM KCl and 0.1% Triton X-100 at pH 8.0 and at 30° C. The reaction was started by adding dihydroorotate and measuring the absorption at 600 nm for 2 min. For the determination of the IC50 values, each data point was recorded in triplicate. […].

SARS-CoV-2 = SARS-CoV-2 viral replication (YFP) assay; assay type: cell-based; settings: Severe acute respiratory syndrome coronavirus 2, read-out: EC50 range
[2] = human DHODH assay, read-out: IC50 range

Chain of N-terminally truncated recombinant hDHODH enzyme (Q02127 whole entry, looked up, the tested form may be a part): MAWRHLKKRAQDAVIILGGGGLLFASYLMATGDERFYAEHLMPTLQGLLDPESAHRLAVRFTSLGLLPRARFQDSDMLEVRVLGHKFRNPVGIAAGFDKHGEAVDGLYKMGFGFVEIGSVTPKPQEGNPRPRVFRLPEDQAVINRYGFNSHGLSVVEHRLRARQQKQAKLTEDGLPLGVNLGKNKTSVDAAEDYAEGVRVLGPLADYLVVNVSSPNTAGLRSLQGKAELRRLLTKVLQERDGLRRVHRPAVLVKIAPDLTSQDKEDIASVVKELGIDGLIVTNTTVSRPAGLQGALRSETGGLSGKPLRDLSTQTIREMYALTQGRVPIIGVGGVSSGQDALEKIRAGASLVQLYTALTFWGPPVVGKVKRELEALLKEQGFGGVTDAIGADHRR

SMILES | IC50 [1, 2] | EC50 (SARS-CoV-2) | IC50 [1] | IC50 ([1]; matched pair comparison, read-out: DHODH IC50)
[2H]C([2H])([2H])Oc1cccc(-c2cc(F)c(NC(=O)C3=C(C(=O)NS(=O)(=O)C4(C)CC4)CCC3)c(F)c2)c1 [1/2] | > 10 µM | 10 to 25 µM | – | –
[2H]C([2H])([2H])Oc1cccc(-c2cc(F)c(NC(=O)C3=C(C(=O)NS(=O)(=O)C(F)F)CCC3)c(F)c2)c1 [1/3] | – | 25 to 50 µM | 1 to 10 µM | –
[2H]C([2H])([2H])Oc1cccc(-c2cc(F)c(NC(=O)C3=C(C(=O)NS(C)(=N)=O)CCC3)c(F)c2)c1 (stereo not drawn) [1/4] | < 0.1 µM | > 50 µM | – | –
[2H]C([2H])([2H])C([2H])([2H])Oc1cccc(-c2cc(F)c(NC(=O)C3=C(C(=O)NS(C)(=O)=O)CCC3)c(F)c2)c1 [1/5] | < 0.1 µM | < 10 µM | – | –
[2H]C([2H])([2H])Oc1ccccc1-c1cc(F)c(NC(=O)C2=C(C(=O)NS(C)(=O)=O)CCC2)c(F)c1 [1/6] | < 0.1 µM | 25 to 50 µM | – | –
[2H]c1c([2H])c(-c2cccc(OC([2H])([2H])[2H])c2)c([2H])c(C([2H])([2H])[2H])c1NC(=O)C1=C(C(=O)NS(C)(=O)=O)CCC1 [1/8] | – | – | 1 to 10 µM | –
[2H]C([2H])([2H])Oc1ccccc1-c1c(F)c(F)c(NC(=O)C2=C(C(=O)NS(C)(=O)=O)CCC2)c(F)c1F [1/9] | < 0.1 µM | – | – | –
[2H]C([2H])([2H])Oc1cccc(-c2c(F)c(F)c(NC(=O)C3=C(C(=O)NS(C)(=O)=O)COC3)c(F)c2F)c1 [1/10] | – | – | 0.1 to 1 µM | –
[2H]C([2H])([2H])Oc1cccc(-c2ccc(NC(=O)C3=C(C(=O)NS(C)(=O)=O)CCC3)c(F)c2)c1 [1/11] | – | – | 0.1 to 1 µM | –
[2H]C([2H])([2H])Oc1cccc(-c2c(F)c(F)c(NC(=O)C3=C(C(=O)NS(C)(=O)=O)CC(F)(F)C3)c(F)c2F)c1 [1/12] | < 0.1 µM | < 1 µM | – | –
[2H]C([2H])([2H])Oc1cccc(-c2c(F)c(F)c(NC(=O)c3cscc3C(=O)NS(C)(=O)=O)c(F)c2F)c1 [1/14] | – | > 50 µM | – | –
[2H]C([2H])([2H])Oc1cccc(-c2cc(F)c(NC(=O)C3=C(C(=O)NS(=O)(=O)N(C)C)CCC3)c(F)c2)c1 [2/2] | > 10 µM | 10 to 25 µM | – | –
[2H]C([2H])([2H])Oc1cccc(-c2cc(F)c(NC(=O)C3=C(C(=O)NS(=O)(=O)NC)CCC3)c(F)c2)c1 [2/3] | – | 10 to 25 µM | 0.1 to 1 µM | –
[2H]C([2H])([2H])Oc1ccccc1-c1c(F)c(F)c(NC(=O)C2=C(C(=O)NS(N)(=O)=O)CCC2)c(F)c1F [2/4] | < 0.1 µM | < 10 µM | – | –
[2H]C([2H])([2H])Oc1cccc(-c2c(F)c(F)c(NC(=O)C3=C(C(=O)NS(N)(=O)=O)CC(F)(F)C3)c(F)c2F)c1 [2/5] | < 0.1 µM | < 1 µM | – | –
[2H]C([2H])([2H])Oc1cccc(-c2c(F)c(F)c(NC(=O)c3cscc3C(=O)NS(N)(=O)=O)c(F)c2F)c1 [2/6] | < 0.1 µM | < 10 µM | – | –
[2H]C([2H])([2H])Oc1cccc(-c2cc(F)c(NC(=O)C3=C(C(=O)NOCCF)CCC3)c(F)c2)c1 [4/2] | – | < 10 µM | 0.1 to 1 µM | –
[2H]C([2H])([2H])ONC(=O)C1=C(C(=O)Nc2c(F)cc(-c3cccc(OC([2H])([2H])[2H])c3)cc2F)CCC1 [4/4] | – | < 10 µM | – | –
[2H]C([2H])([2H])Oc1cccc(-c2ccc(NC(=O)C3=C(C(=O)NOC)CCC3)n3ccnc23)c1 [4/8] | > 10 µM | – | – | –
[2H]C([2H])([2H])Oc1cccc(-c2cc(F)c(NC(=O)C3=C(C(=O)NOCC)CCC3)c(F)c2)c1 [4/9] | – | < 10 µM | 1 to 10 µM | –
[2H]C([2H])([2H])Oc1cccc(-c2ccc(NC(=O)C3=C(C(=O)NOC)CCC3)c3cnccc23)c1 [4/11] | > 10 µM | 25 to 50 µM | – | –
[2H]C([2H])([2H])Oc1cccc(-c2ccc(NC(=O)C3=C(C(=O)NOC)CCC3)c3ccccc23)c1 [4/12] | > 10 µM | < 10 µM | – | –
CONC(=O)C1=C(C(=O)Nc2c(F)cc(-c3cccc4c3OCO4)cc2F)CCC1 [4/13] | – | < 10 µM | 1 to 10 µM | –
CONC(=O)C1=C(C(=O)Nc2c(F)cc(-c3cccc4ocnc34)cc2F)CCC1 [4/14] | – | < 10 µM | 1 to 10 µM | –

SMILES | IC50 [1, 2] | EC50 (SARS-CoV-2) | IC50 [1] | IC50 ([1]; matched pair comparison, read-out: DHODH IC50)
[2H]C([2H])([2H])Oc1cccc(-c2cc(F)c(NC(=O)C3=C(C(=O)NC#N)CCC3)c(F)c2)c1 [4/15] | – | 10 to 25 µM | – | –
[2H]C([2H])([2H])ONC(=O)C1=C(C(=O)Nc2c(F)c(F)c(-c3cccc(OC([2H])([2H])[2H])c3)c(F)c2F)CCC1 [4/22] | < 0.1 µM | < 1 µM | – | –
[2H]C([2H])([2H])Oc1cccc(-c2c(F)c(F)c(NC(=O)C3=C(C(=O)NOCCO)CCC3)c(F)c2F)c1 [4/23] | < 0.1 µM | < 1 µM | – | –
[2H]C([2H])([2H])Oc1cccc(C23CCC(NC(=O)C4=C(C(=O)NOC)CCC4)(CC2)CC3)c1 [4/24] | > 10 µM | – | – | –
[2H]C([2H])([2H])Oc1cccc(-c2cc(F)c(NC(=O)C3=C(C(=O)NOC)CC(F)(F)C3)c(F)c2)c1 [4/25] | < 0.1 µM | < 1 µM | – | –
[2H]C([2H])([2H])Oc1ccccc1-c1c(F)c(F)c(NC(=O)C2=C(C(=O)NOC)CCC2)c(F)c1F [4/26] | < 0.1 µM | < 1 µM | – | –
[2H]C([2H])([2H])Oc1ccccc1-c1c(F)c(F)c(NC(=O)C2=C(C(=O)NOCCO)CCC2)c(F)c1F [4/27] | – | < 1 µM | 0.1 to 1 µM | –
[2H]C([2H])([2H])Oc1cccc(-c2c(F)c(F)c(NC(=O)c3cscc3C(=O)NOC)c(F)c2F)c1 [4/28] | < 0.1 µM | < 1 µM | – | –
[2H]C([2H])([2H])Oc1cccc(-c2c(F)c(F)c(NC(=O)C3=C(C(=O)NOCCO)CC(F)(F)C3)c(F)c2F)c1 [4/29] | < 0.1 µM | < 1 µM | – | –
[2H]C([2H])([2H])Oc1cccc(-c2c(F)c(F)c(NC(=O)c3c[nH]cc3C(=O)NOC)c(F)c2F)c1 [4/30] | – | < 10 µM | 0.1 to 1 µM | –
[2H]C([2H])([2H])ONC(=O)c1cscc1C(=O)Nc1c(F)c(F)c(-c2cccc(OC([2H])([2H])[2H])c2)c(F)c1F [4/31] | < 0.1 µM | < 1 µM | – | –
[2H]C([2H])([2H])Oc1cccc(-c2ccc(NC(=O)C3=C(C(=O)NOCCO)CCC3)c(F)c2)c1 [5/7] | > 10 µM | – | – | –
[2H]C([2H])([2H])Oc1cccc(-c2ccc(NC(=O)C3=C(C(=O)NOC)CCC3)c(F)c2)c1 [5/8] | – | – | 1 to 10 µM | –
[2H]C([2H])([2H])ONC(=O)C1=C(C(=O)Nc2c(F)c(F)c(-c3ccccc3OC([2H])([2H])[2H])c(F)c2F)COC1 [5/10] | < 0.1 µM | – | – | –
[2H]C([2H])([2H])Oc1ccccc1-c1c(F)c(F)c(NC(=O)C2=C(C(=O)NOC)COC2)c(F)c1F [5/11] | < 0.1 µM | – | – | –
[2H]C([2H])([2H])ONC(=O)C1=C(C(=O)Nc2c(F)c(F)c(-c3cccc(OC([2H])(C([2H])([2H])[2H])C([2H])([2H])[2H])c3)c(F)c2F)COC1 [5/15] | < 0.1 µM | – | – | –
[2H]C([2H])([2H])ONC(=O)C1=C(C(=O)Nc2c(F)c(F)c(-c3cc(F)cc(OC([2H])([2H])[2H])c3)c(F)c2F)COC1 [5/16] | < 0.1 µM | – | – | –
[2H]C([2H])([2H])Oc1cccc(-c2c(F)c(F)c(NC(=O)c3cc(F)sc3C(=O)NOC)c(F)c2F)c1 [16/2] | < 0.1 µM | – | – | –
[2H]C([2H])([2H])Oc1cccc(-c2c(F)c(F)c(NC(=O)c3sc(F)cc3C(=O)NOC)c(F)c2F)c1 [16/3] | < 0.1 µM | – | – | –
CONC(=O)C1=C(C(=O)Nc2ccc(-c3cccc(OC)c3)cc2F)CCC1 [Example 4/33] | – | – | 1 to 10 µM | 2.02 µM
[2H]C([2H])([2H])Oc1cccc(-c2cc(F)c(N(CC(=O)OC)C(=O)C3=C(C(=O)NOC)CCC3)c(F)c2)c1 [Example 14, Methyl N-(3,5-difluoro-3′-(methoxy-d3)-[1,1′-biphenyl]-4-yl)-N-(2-(methoxy-carbamoyl)cyclopent-1-ene-1-carbonyl)glycinate] | – | – | 1 to 10 µM | –
[2H]C([2H])([2H])Oc1cccc(-c2cc(F)c(N(CCO)C(=O)C3=C(C(=O)NOC)CCC3)c(F)c2)c1 [Example 15, N1-(3,5-Difluoro-3′-(methoxy-d3)-[1,1′-biphenyl]-4-yl)-N1-(2-hydroxyethyl)-N2-methoxy-cyclopent-1-ene-1,2-dicarboxamide] | > 10 µM | – | – | –
[2H]C([2H])([2H])Oc1cccc(-c2c(F)c(F)c(NC(=O)c3ncsc3C(=O)NOC)c(F)c2F)c1 [Example 16-1, N5-methoxy-N4-(2,3,5,6-tetrafluoro-3′-(methoxy-d3)-[1,1′-biphenyl]-4-yl)thiazole-4,5-dicarboxamide] | < 0.1 µM | – | – | –
[2H]C([2H])([2H])Oc1cccc(-c2c(F)c(F)c(NC(=O)c3scnc3C(=O)NOC)c(F)c2F)c1 [Example 16-2, N4-methoxy-N5-(2,3,5,6-tetrafluoro-3′-(methoxy-d3)-[1,1′-biphenyl]-4-yl)thiazole-4,5-dicarboxamide] | – | – | 0.1 to 1 µM | –
